Results on one compound are retold here after paper PMC4521150, “Discovery of Novel Inhibitors and Fluorescent Probe Targeting NAMPT” (Scientific Reports, 2015).

Where two headings read alike, the source gives them in different places.

What is called IC50 is the concentration at which inhibition is half-maximal.

Series [1] concerns HepG2 cells. Put plainly: Cell viability assay (CCK-8) in HepG2 cells. Format: cell-based, human. As to conditions: for IC50: HepG2, 48 h, CCK-8, read-out: IC50 for inhibitory effect on HepG2 cell viability. The procedure:
(§1) Cell viability was determined by our previous method[27] using the Cell Counting Kit-8 (CCK-8, Dojindo, Japan). In human hepatocellular carcinoma cell line HepG2, cells were seeded in 96-well plate and starved for over 12 h with serum-free DMEM at 60~70% confluency, then treated with compounds or vehicle for 48 h. To determine the IC50 values of inhibitors, compounds with various concentrations were added into the 96-well plate. 10 μl CCK-8 solution was added to the culture medium and incubated at 37 °C for 1 h. The absorbance at 450 nm (A450) was detected by a plate reader. Each experiment was carried out in triplicate in three replicate wells. The IC50 values were determined by non-linear fitting of the concentration-dependent curves with the four-parameter IC50 logistic equation.

In another series the test system is Huh-7 cell. Briefly: Cell viability in Huh-7 cells. Type of series: cell-based, human. As to conditions: Huh-7, Figure S2. An excerpt:
However, IC50 values for other 5 fluorescent compounds were able to be determined (Supplemental dataset S2). We then measured the fluorescence of all 9 fluorescent compounds at a series of different concentrations.

The subject of series [2] is primary mouse hepatocytes. Put plainly: Cell viability of primary hepatocytes from normal mice. Type of series: cell-based. As to conditions: 30 μM. The procedure:
as §1
Hepatocytes were isolated from mouse liver by the two-step collagenase perfusion method. […] For imaging experiment, 1 × 10^5 cells were plated in a 35-mm glass bottom dishes or 5 × 10^4 were plated in 48-well plate for cell viability assay in DMEM supplemented with 10% FBS and antibiotics, and kept under an atmosphere of 95% air and 5% CO2 at 37 °C.

A further series concerns HepG2 NAD levels. Briefly: Cellular NAD measurement (enzymatic cycling assay) in HepG2 cells. Type of series: cell-based, human. How it is done: Cellular level of NAD was measured by spectrophotometric enzymatic cycling assay, as described previously. Briefly, cells were seeded in 96-well plate and starved for over 12 h with serum-free DMEM at 60~70% confluency, following by treatment with compounds or vehicle for 24 h. Cells were lysed with 50 μl of 1M HClO4 on ice for 30 min. The lysates were cleared by centrifuging at 4 °C at 18,000 × g for 5 min, and cleared lysates (40 μl) were neutralized by adding 1M K2CO3 (16 μl) and incubation on ice for 20 min. After centrifuging for 10 min, 10 μl of supernatant were mixed with reaction buffer [50 mM Tris-HCl (pH 7.5), 3% ethanol, 1.66 mM PES (phenazineethosulfate), 0.42 mM MTT (3-(4,5-dimethylthiazolyl-2)-2,5-diphenyltetrazolium bromide), 90 μg/ml ADH] in a total volume of 100 ul, and incubated at 37 °C for 40 min. The absorbance at 570 nm was determined. A blank measurement without ADH was also carried out. Each experiment was carried out in triplicate in three replicate wells

Series [3] has as its system HepG2 cells. Put plainly: Live cell fluorescence imaging of compounds in HepG2 cells. Type of series: cell-based, human. As to conditions: 3 μM, 30 minutes incubation, washed. The procedure:
NAMPT knockdown in HepG2 cells was performed by transfection of NAMPT siRNA synthesized by Shanghai GenePharma Co., Ltd (Shanghai, China). The siRNA sequence targeting NAMPT corresponded to coding regions (5′-[…]-3′, 5′-[…]-3′) of the NAMPT gene. The nonspecific siRNA oligonucleotides (synthesized by Shanghai GenePharma Co., Ltd, Shanghai, China) were used as negative controls. 10 nM of NAMPT siRNA or nonspecific siRNA were transfected into HepG2 cells with Lipofectamine RNAiMax reagent (Invitrogen, CA, USA) according to the manufacturer’s instructions. After 24 or 48 hours, transfected cells were subjected to subsequent analysis.
For imaging experiment, HepG2 cells or primary hepatocytes were seeded into 35-mm glass bottom dishes (In Vitro Scientific). The following day, compounds were added to the medium at a final concentration of 3 μM. After 30 minutes, cells were rinsed twice with PBS (pH 7.5), then incubated in fresh culture medium and imaged on a fluorescence microscope (IX-71, Olympus) with a digital camera (Olympus). After 4 hours, these cells were imaged once again. Digital images were recorded and analyzed using ImageJ.

For `Cc1nc2ccccc2n(Cc2ccc(C(=O)NCc3cccnc3)cc2)c1=O` [F671-0003], in the series with HepG2 cells [1] (2 μM, 48 hours of incubation), the “Effect on HepG2 cell viability at 2 μM” value is reported as “significant inhibition on cell viability”. In the series on HepG2 cells [1] (HepG2, 2 μM, 48 h), the “Inhibition on cell viability” value was 50%. Besides, the “Rescue of cell viability by exogenous NMN” value in the series on HepG2 cells [1] (HepG2, 3 μM compound, NMN at 300 μM) is “totally rescued”. In addition, the IC50 is 1690 ± 150 nM in the series on HepG2 cells [1]; approximately 2000 nM in the series with HepG2 cells [1] (Homo sapiens); 6.71 nM in the series on HepG2 NAD levels (Homo sapiens, HepG2, 24 hours treatment, read-out: IC50 for reducing NAD level). The “Effect on Huh-7 cell viability” value in the series with Huh-7 cell was “Inhibitory effects”. Further, the “Inhibition of normal hepatocytes viability” value in series [2] is recorded as ~ 20%. In addition, the “Decrease of cellular NAD level” value with HepG2 NAD levels (HepG2, 1 μM, 24 hours) is on record as ~ 80%. For the same compound, the “Cellular fluorescence in living HepG2 cells” value in the series with HepG2 cells [3] was “did not show any fluorescence”.
